The test system of experiment [1] is Hamster's ear sebaceous glands. Description: Topical antiandrogenic activity, histomorphometry of the ear sebaceous glands in the hamster. Type of experiment: in vivo, Male Golden Syrian hamster. The settings on record: Mesocricetus auratus, 336 h, once daily, 14 days, sebaceous gland area, read-out: Antiandrogenic activity in Hamster's sebaceous glands Inh. Vs Cx (%); for inhibition in vivo at 0.001 mg: dose 1 μg applied topically on left ear of intact male hamster; for inhibition in vivo at 0.003 mg: dose 3 μg applied topically on left ear of intact male hamster; for inhibition in vivo at 0.01 mg: dose 10 μg applied topically on left ear of intact male hamster. An excerpt: Column 3 represents the dose of antiandrogenic compounds applied on the left ear of the intact male hamster.
Column 4 represents the relative inhibition in % of the area of the sebaceous gland of the left ear versus control hamster. Higher values approaching the effect of castration are preferable
The Antiandrogenic activity of antiandrogenic compounds has been measured using a Histomorphometry assay of the Ear Sebaceous Glands in the Hamster
1. Animals Male Golden Syrian, Hamster (SYR) of 110-120 g were obtained from Harlan Sprague Dawlay (Madison, USA) and housed up to 2 per cage in plastic cages in a temperature (22±3° C.) and light (12 h light/day, lights on at 7 h 15) in a controlled environment. The hamsters were fed with Certified Rodent Diet 5002 (pellet) and tap water ad libitum. The animals were acclimated for at least five days before the beginning of the study. Animals were randomly assigned to groups of eight hamsters. One group of hamsters was castrated under isoflurane-induced anesthesia on the day of dosing initiation (SD 1) and used as control group.
2. Treatments To evaluate the antiandrogenic activity, tested compounds were applied topically on the inner part of the left ear, once daily, for 14 days. Ten μL solution of acetone: ethanol: propylene Glycol (1:1:2; v:v:v) containing 0.1, 0.3 or 1.0 mg/mL of tested compound was carefully applied onto a region between the two cartilage ridges of the ventral surface of left pinna. For animals in the castrated and intact control groups ten-μL vehicle was applied onto the left ear. No solution will be applied on the right ear for any animals of the study.
3. Postmortem Observations and Measurements On Study Day 15, the hamsters were euthanized by cervical dislocation under isoflurane anesthesia. The left and right ears were collected attached together by the head skin, flat fixed on a paper and were immersed in 10% neutral buffered formalin. From the flat fixed ear and using paper puncture that makes a hole of 6 mm, the region where solution was applied was collected from each ear. Using a scalpel blade, the collected 6 mm round ear specimen was cut in the middle between the two cartilage ridges. The two equal parts of the ear round specimen were embedded in paraffin. After processing the tissue, the two parts were vertically embedded parallel to each other in a way that the flat 6 mm area was facing out. From each paraffin block, one section (5 μm thick) was cut and collected on a glass slide. Thus, each slide contained two elongated sections of 6 mm length. Slides were stained with hematoxylin and eosin.
4. Analysis of Sebaceous Gland Area Using the video camera and objective lens number X5 of the light microscope, the resulting field that appears on the screen has a length of 0.953 mm. From the glass slide, when we have examined the first 6 mm long section from the left to the right, the first and second fields were ignored and the third and fourth fields were captured for analysis by the image analyzer. Each field has the length of 0.953 mm. With the help of the screen mouse, the sebaceous glands within the whole field length (0.953mm) were marked. Also, an area with the length of the whole field and the height between stratum granulosum and the upper edge of the cartilage was drawn.
The image analyzer calculated the total area of the sebaceous glands (μm^2) in each examined field. We also obtained the area, which has the length of 0.953 mm and the height between stratum granulosum and the cartilage. In addition, the percentage of the area occupied by the glands was obtained. Thus, for each ear, two sections were cut and two fields from each section were analyzed. The total of the four readings was averaged and the mean standard of error calculated by the image analyzer. The results were expressed in μm^2 as the total surface of glands per field and also as percentage of the area occupied by the glands.

In a further experiment the test system is rat prostate. Kind of experiment: Systemic antiandrogenic activity in immature male rats (castrated, DHT implant), prostate weight. The settings on record: po, 168 h, 0.5 mg/animal per os once daily 7 days, % efficacy relative to inhibition by flutamide, read-out: RAT (in vivo) (systemic) Prostate Inh. % inh. (0.5 mg, per os). Here is the method:
Column 5 represents the % of antiandrogenic efficacy in rat prostate, relatively to the percentage of inhibition of flutamide calculated by the formula:
(§1) % efficacy versus Flu=100×% inhib (compound)/% inhib (Flu).
(§2) Where the percentage of inhibition (% inhib) is calculated by the following formula:
% lnhib=100−[W (compound)−W (control)/W (DHT)−W (control)]×100.
W is the weight of the prostate.
(§3) C Systemic antiandrogenic activity (immature male rats)
(§4) 1. Animals Immature male rats (Crl:CD(SD)Br) 22 to 24-day old were obtained from Charles-River, Inc. (St-Constant, Quebec, Canada) and housed up to 5 per cage in plastic bins in a temperature (23±1° C.)—and light (12 h light/day, lights on at 7h15)—controlled environment. The rats were fed rodent chow and tap water ad libitum. The day following their arrival, the animals were orchidectornized (CX) under Isoflurane anesthesia via scrotal route and randomly assigned to groups of 5 animals. One silastic implant of dihydrotestosterone (DHT; length of implant: 1 cm) was inserted subcutaneously in the dorsal area of animals at the time of orchidectomy. One group of 5 animals was CX only as control (no DHT implant inserted).
(§5) 2. Treatments To evaluate the antiandrogenic activity, tested compounds were administered orally by gavage once daily at a dose of 0.5 mg/animal for 7 days (SD 1 to 7). Compounds were solubilized (when possible) in dimethylsulfoxide (DMS, 10% final concentration) and administered as suspension in 0.4% methylcellulose. Rats in CX control and CX+DHT control groups received the vehicle alone during the 7-day period. One group of animals received the antiandrogen Flutamide as reference. The animals were killed by cervical dislocation under isoflurane anesthesia on the 8th morning following castration. The ventral prostate and seminal vesicles were rapidly dissected and weighed.
(§6) 3. Calculations and Statistical Analysis The percentage of inhibition (% inhib) is calculated by the following formula:
(§7) % Inhib=100−[W (compound)−W (control)/W (DHT)−W (control)]×100.
(§8) This percentage is reported as % of efficacy, relatively to the percentage of inhibition of flutaride calculated by the formula: % efficacy versus Flu=100×% inhib (compound)/% inhib (Flu).
(§9) W is the weight of the prostate or the seminal vesicle.

The next experiment has as its system rat seminal vesicle. Description: Systemic antiandrogenic activity in immature male rats (castrated, DHT implant), seminal vesicle weight. The settings on record: po, 168 h, 0.5 mg/animal per os once daily 7 days, % efficacy relative to inhibition by flutamide, read-out: RAT (in vivo) (systemic) SV Inh % inh. (0.5 mg, per os). The procedure:
Column 6 represents the % of antiandrogenic efficacy on the rat seminal vesicle, relative to the percentage of inhibition by flutamide calculated by the formula:
as §1, §2, §7
W is the weight of the seminal vesicle.
as §3, §4, §5, §6, §8, §9

In experiment [2] the test system is Shionogi mouse mammary carcinoma cells. Kind of experiment: In vitro androgenic/antiandrogenic activity, DHT-stimulated Shionogi cell number. Type of experiment: cell-based. The settings on record: for Shionogis (In Vitro) VS OH-FLU (ratio of Ki of hydroxyflutamide versus tested compound): OH-Flu = 1, DHT-stimulated cell number, higher values preferable.
The mark [3] stands for this setting: Mus musculus, read-out: Shionogis (In Vitro) IC50(nM), inhibition of DHT-stimulated cell number, 10-12 days.

Like-named read-outs stand apart in the source and are kept apart here.

The IC50 is the concentration needed to halve the response being measured. With `CC1(C)CC2C3CCc4c(Cl)cccc4C3CC[C@]2(C)[C@H]1O` (stereo partly shown) [EM-3415], in experiment [1], the inhibition in vivo at 0.001 mg came to 0%, the inhibition in vivo at 0.003 mg worked out at 11.1% and the inhibition in vivo at 0.01 mg was found to be 44.4%. The inhibition in vivo at 0.5 mg with rat prostate was 0%. Besides, the inhibition in vivo at 0.5 mg in the experiment on rat seminal vesicle turned out to be 0%. Besides, the IC50 in experiment [2] (setting [3]) was determined as 26 nM. For the same molecule, the “Shionogis (In Vitro) VS OH-FLU (ratio of Ki of hydroxyflutamide versus tested compound)” value in experiment [2] was determined as 2.5.
In the case of `C[C@]12CCC3c4cccc(C#N)c4CCC3C1C[C@@H](C#CC1CC1)[C@@H]2O` (stereo partly shown) [EM-3473], in experiment [1], the inhibition in vivo at 0.001 mg was determined as 7.4%, the inhibition in vivo at 0.003 mg was found to be 0% and the inhibition in vivo at 0.01 mg came out at 14.8%. For the same molecule, the inhibition in vivo at 0.5 mg in the experiment with rat prostate came to 0%. For the same molecule, in the experiment on rat seminal vesicle, the inhibition in vivo at 0.5 mg was 0%. The IC50 in experiment [2] (setting [3]) was found to be 9.3 nM. The “Shionogis (In Vitro) VS OH-FLU (ratio of Ki of hydroxyflutamide versus tested compound)” value in experiment [2] is reported as 9.
For the molecule `CC1(C)C[C@H]2[C@@H]3CCc4cc(F)ccc4[C@H]3CC[C@]2(C)[C@H]1O` [EM-3497, 3fluoro-16,16-dimethyl-1,3,5(10)-estratrien-17β-ol], in experiment [1], the inhibition in vivo at 0.001 mg worked out at 62.9%, the inhibition in vivo at 0.003 mg came out at 62.9% and the inhibition in vivo at 0.01 mg came to 77.7%. Besides, the inhibition in vivo at 0.5 mg in the experiment on rat prostate was 0%. Moreover, in the experiment on rat seminal vesicle, the inhibition in vivo at 0.5 mg worked out at 0%. The IC50 in experiment [2] (setting [3]) amounted to 46 nM. For the same molecule, the “Shionogis (In Vitro) VS OH-FLU (ratio of Ki of hydroxyflutamide versus tested compound)” value in experiment [2] was determined as 1.5.
For the molecule `C[C@@H]1CCC2C3CCc4c(C#N)cccc4C3CC[C@]2(C)[C@H]1O` (stereo partly shown) [EM-3803], in experiment [1], the inhibition in vivo at 0.001 mg turned out to be 33.3%, the inhibition in vivo at 0.003 mg came to 51.8% and the inhibition in vivo at 0.01 mg amounted to 37%. The inhibition in vivo at 0.5 mg in the experiment with rat prostate came to 0%. Also, the inhibition in vivo at 0.5 mg with rat seminal vesicle was 30%. In experiment [2] (Mus musculus, inhibition of DHT-stimulated cell number, 10-12 days, read-out: Shionogis (In Vitro) IC50), the IC50 was 11 nM. Moreover, the IC50 in experiment [2] (inhibition of DHT-stimulated cell number, 10-12 days, read-out: Shionogis (In Vitro) IC50) amounted to 8.6 nM.
For the molecule `CC[C@@H]1CC2C3CCc4c(C#N)cccc4C3CC[C@]2(C)[C@H]1O` (stereo partly shown) [EM-3852], in experiment [1], the inhibition in vivo at 0.003 mg came to 66.6% and the inhibition in vivo at 0.01 mg worked out at 70.4%. Also, in the experiment with rat prostate, the inhibition in vivo at 0.5 mg worked out at 0%. Also, the inhibition in vivo at 0.5 mg in the experiment on rat seminal vesicle was determined as 0%. Besides, the IC50 in experiment [2] (setting [3]) was determined as 16.1 nM. Moreover, the “Shionogis (In Vitro) VS OH-FLU (ratio of Ki of hydroxyflutamide versus tested compound)” value in experiment [2] turned out to be 8.7.
As to `CC#Cc1ccc2c(c1C#N)CCC1C2CC[C@]2(C)C(=O)CCC12` (stereo partly shown) [EM-4142], in experiment [1], the inhibition in vivo at 0.001 mg is 18.5%, the inhibition in vivo at 0.003 mg was found to be 18.5% and the inhibition in vivo at 0.01 mg turned out to be 37%. Further, in the experiment with rat prostate, the inhibition in vivo at 0.5 mg worked out at 0%. In the experiment on rat seminal vesicle, the inhibition in vivo at 0.5 mg came out at 22%. In experiment [2] (setting [3]), the IC50 turned out to be 29 nM. Besides, the “Shionogis (In Vitro) VS OH-FLU (ratio of Ki of hydroxyflutamide versus tested compound)” value in experiment [2] is listed as 3.7.
For `CC(C)[C@H]1CC2C3CCc4c(C#N)cccc4C3CC[C@]2(C)[C@H]1O` (stereo partly shown) [EM-4157], in experiment [1], the inhibition in vivo at 0.001 mg worked out at 18.5%, the inhibition in vivo at 0.003 mg is 29.6% and the inhibition in vivo at 0.01 mg came out at 40.7%. Moreover, in the experiment with rat prostate, the inhibition in vivo at 0.5 mg was 0%. For the same molecule, the inhibition in vivo at 0.5 mg in the experiment with rat seminal vesicle stood at 55%. Besides, in experiment [2] (setting [3]), the half-inhibitory concentration (IC50) worked out at 33 nM. For the same molecule, the “Shionogis (In Vitro) VS OH-FLU (ratio of Ki of hydroxyflutamide versus tested compound)” value in experiment [2] turned out to be 5.
On to `C#Cc1ccc2c(c1)CCC1C2CC[C@@]2(C)C1C[C@@H](C)[C@@H]2O` (stereo partly shown) [EM-5035], for which, in experiment [1], the inhibition in vivo at 0.001 mg was determined as 3.7%, the inhibition in vivo at 0.003 mg came to 11.1% and the inhibition in vivo at 0.01 mg is 51.9%. Further, in the experiment with rat prostate, the inhibition in vivo at 0.5 mg turned out to be 11%. The inhibition in vivo at 0.5 mg in the experiment with rat seminal vesicle stood at 4%. Moreover, the IC50 in experiment [2] (setting [3]) was 66 nM. Also, in experiment [2], the “Shionogis (In Vitro) VS OH-FLU (ratio of Ki of hydroxyflutamide versus tested compound)” value stood at 1.6.

Values taken from US20040224935A1, “Topical antiandrogenic steroids” (Endorecherche, Inc., priority 2003, published 2004).
